Data reported in patent US9937151B2, “Carbapenem antibacterials with gram-negative activity” (priority 2010, dated 2018).
≈ marks a conversion by molar mass, not a printed value.

Tested on: G(−) bacterial strains
Test: Dilution antimicrobial susceptibility tests (MIC, NCCLS agar dilution / broth dilution)
Type: cell-based, Gram-negative organisms
Settings: unit assumed
Outline: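 Agar dilution on Mueller-Hinton agar at 10^4 CFU/spot and broth dilution at 5×10^5 CFU/well, per NCCLS M7-A5. Streptococci tested on Mueller-Hinton agar with 5% sheep blood. MIC taken as minimum inhibitory concentration; ATCC control strains run alongside.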

[1] = strain #1 Acinetobacter calcoaceticus
[2] = strain #2 Acinetobacter baumannii, Cf-R, Ci-R
[3] = strain #3 Acinetobacter baumannii, Cf-R, Ci-R, Mp-I
[4] = strain #4 Acinetobacter baumannii, Cf-R, Imp-I, CBPase
[5] = strain #7 Enterobacter aerogenes
[6] = strain #8 Enterobacter cloacae, Cf-R, B+
[7] = strain #9 Enterobacter cloacae, Cf-R
[8] = strain #10 Escherichia coli, Ci-R
[9] = strain #11 Escherichia coli, Ci-R, AmpC
[10] = strain #15 Klebsiella pneumoniae
[11] = strain #16 Moraxella catarrhalis
[12] = strain #21 Providencia rettgeri
[13] = strain #22 Salmonella typhimurium
[14] = strain #25 Shigella dysenteriae
[15] = strain #28 Stenotrophomonas maltophilia
[16] = strain #29 Pseudomonas aeruginosa
[17] = strain #30 Pseudomonas aeruginosa
[18] = strain #31 Pseudomonas aeruginosa, Ofx-R
[19] = strain #32 Pseudomonas aeruginosa, Cf-R
[20] = strain #33 Pseudomonas aeruginosa, Ci-R
[21] = strain #34 Pseudomonas aeruginosa, Gen-R
[22] = strain #35 Pseudomonas aeruginosa, Ip-R
[23] = strain #36 Pseudomonas aeruginosa, Cf-R, Ci-R, Mp-R

Row | Structure (SMILES) | MIC [1] | MIC [2] | MIC [3] | MIC [4] | MIC (strain #5 Citrobacter diversus) | MIC (strain #6 Citrobacter freundii) | MIC [5] | MIC [6] | MIC [7] | MIC [8] | MIC [9] | MIC (strain #12 Escherichia coli) | MIC (strain #13 Escherichia coli) | MIC (strain #14 Klebsiella oxytoca) | MIC [10] | MIC [11] | MIC (strain #17 Morganella Morganii) | MIC (strain #18 Morganella Morganii) | MIC (strain #19 Proteus vulgaris) | MIC (strain #20 Proteus mirabilis) | also measured
1 | C[C@@H](O)[C@H]1C(=O)N2C(C(=O)O)=C(CN3C[C@@H](O)[C@H](NC(=N)N)C3)[C@H](C)[C@H]12 [Compound 178] | 0.13 µg/mL (≈ 0.354 µM) | 1 µg/mL (≈ 2.72 µM) | 1 µg/mL (≈ 2.72 µM) | 1 µg/mL (≈ 2.72 µM) | 0.25 µg/mL (≈ 0.68 µM) | 0.5 µg/mL (≈ 1.36 µM) | 1 µg/mL (≈ 2.72 µM) | 0.25 µg/mL (≈ 0.68 µM) | 0.5 µg/mL (≈ 1.36 µM) | 0.25 µg/mL (≈ 0.68 µM) | 0.25 µg/mL (≈ 0.68 µM) | 0.5 µg/mL (≈ 1.36 µM) | 0.5 µg/mL (≈ 1.36 µM) | 0.5 µg/mL (≈ 1.36 µM) | 0.5 µg/mL (≈ 1.36 µM) | ≤ 0.008 µg/mL | 2 µg/mL (≈ 5.44 µM) | 2 µg/mL (≈ 5.44 µM) | 2 µg/mL (≈ 5.44 µM) | 0.5 µg/mL (≈ 1.36 µM) | MIC [12]: 1 µg/mL (≈ 2.72 µM); MIC [13]: 0.5 µg/mL (≈ 1.36 µM); MIC (strain #23 Serratia marcescens): 1 µg/mL (≈ 2.72 µM); MIC (strain #24 Serratia marcescens): 2 µg/mL (≈ 5.44 µM); MIC [14]: 0.5 µg/mL (≈ 1.36 µM); MIC (strain #26 Shigella sonnei): 0.5 µg/mL (≈ 1.36 µM); MIC (strain #27 Shigella flexneri): 0.25 µg/mL (≈ 0.68 µM); MIC [15]: 0.13 µg/mL (≈ 0.354 µM); MIC [16]: 1 µg/mL (≈ 2.72 µM); MIC [17]: 2 µg/mL (≈ 5.44 µM); MIC [18]: 1 µg/mL (≈ 2.72 µM); MIC [19]: 2 µg/mL (≈ 5.44 µM); MIC [20]: 2 µg/mL (≈ 5.44 µM); MIC [21]: 2 µg/mL (≈ 5.44 µM); MIC [22]: 2 µg/mL (≈ 5.44 µM); MIC [23]: 16 µg/mL (≈ 43.5 µM)
2 | CC(O)C1C(=O)N2C(C(=O)O)=C(CN3CCC(C(=N)N)C3)C(C)C12 (stereo not drawn) [Compound 185a] | 0.13 µg/mL (≈ 0.386 µM) | 0.5 µg/mL (≈ 1.49 µM) | 1 µg/mL (≈ 2.97 µM) | 1 µg/mL (≈ 2.97 µM) | 0.13 µg/mL (≈ 0.386 µM) | 0.13 µg/mL (≈ 0.386 µM) | 0.5 µg/mL (≈ 1.49 µM) | 0.063 µg/mL (≈ 0.187 µM) | 0.13 µg/mL (≈ 0.386 µM) | 0.063 µg/mL (≈ 0.187 µM) | 0.063 µg/mL (≈ 0.187 µM) | 0.063 µg/mL (≈ 0.187 µM) | 0.13 µg/mL (≈ 0.386 µM) | 0.25 µg/mL (≈ 0.743 µM) | 0.25 µg/mL (≈ 0.743 µM) | ≤ 0.008 µg/mL | 1 µg/mL (≈ 2.97 µM) | 1 µg/mL (≈ 2.97 µM) | 0.5 µg/mL (≈ 1.49 µM) | 0.13 µg/mL (≈ 0.386 µM) | MIC [12]: 0.5 µg/mL (≈ 1.49 µM); MIC [13]: 0.13 µg/mL (≈ 0.386 µM); MIC (strain #23 Serratia marcescens): 0.25 µg/mL (≈ 0.743 µM); MIC (strain #24 Serratia marcescens): 0.5 µg/mL (≈ 1.49 µM); MIC [14]: 0.13 µg/mL (≈ 0.386 µM); MIC (strain #26 Shigella sonnei): 0.13 µg/mL (≈ 0.386 µM); MIC (strain #27 Shigella flexneri): 0.063 µg/mL (≈ 0.187 µM); MIC [15]: 0.063 µg/mL (≈ 0.187 µM); MIC [16]: 1 µg/mL (≈ 2.97 µM); MIC [17]: 1 µg/mL (≈ 2.97 µM); MIC [18]: 0.5 µg/mL (≈ 1.49 µM); MIC [19]: 1 µg/mL (≈ 2.97 µM); MIC [20]: 1 µg/mL (≈ 2.97 µM); MIC [21]: 1 µg/mL (≈ 2.97 µM); MIC [22]: 2 µg/mL (≈ 5.95 µM); MIC [23]: 8 µg/mL (≈ 23.8 µM)
